In patent publication US12030877B2, “Prostaglandin E synthase inhibitors and methods for utilizing the same” (University of Kentucky Research Foundation, priority 2016, dated 2024):
Like-named read-outs stand apart in the source and are kept apart here.

Columns and labels:
[1] = biological target: T1, mPGES-1 Mouse enzyme (Mus musculus, UniProt Q9JM51); test: mPGES-1 enzyme activity assay (PGE2 enzyme immunoassay), mouse enzyme; assay type: biochemical; conditions: for IC50: recombinant microsomal enzyme, means ± SD, triplicate; for inhibition at 10 µM: compound at a concentration of 10 μM, read-out: % inhibition of the compound against mPGES-1, Mouse enzyme
T1 construct: made in house; host or cells: FreeStyle 293-F cells, crude microsomal preparation
T1 sequence (Q9JM51 1-153): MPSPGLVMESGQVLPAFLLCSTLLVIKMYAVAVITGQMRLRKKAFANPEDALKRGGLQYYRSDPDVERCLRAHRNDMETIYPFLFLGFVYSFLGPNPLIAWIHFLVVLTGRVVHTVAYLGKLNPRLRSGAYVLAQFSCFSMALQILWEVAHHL
Protocol: (§1) Studies were conducted to characterize the inhibitory activity against recombinant mPGES-1 of the compounds synthesized in accordance with Examples 1-4, and disclosed herein.
(§2) Briefly, FreeStyle 293-F cells were cultured following manufacturer's manual in FreeStyle 293 expression medium on orbit rotate shaker in 8% CO2 incubator at 37° C. Cells were transfected with 1.5 μg/mL of mPGES-1/pcDNA3 construct using FreeStyle Max reagent at a cell density of 1×10^6 for 2 days. Transfected cells were collected, washed, and sonicated in TSES buffer (15 mM Tris-HCl, pH 8.0 plus 0.25 M sucrose, 0.1 mM EDTA and 1 mM DTT) on ice. The broken cells were first centrifuged at 12,500×g for 10 min. The supernatant was further centrifuged at 105,000×g for 1 hr at 4° C. The pellet was washed and homogenized in PBS buffer. The crude microsomal mPGES-1 preparation was aliquoted and stored at −80° C. The crude protein concentration was 8 mg/mL.
(§3) The enzyme activity assays were performed on ice in 1.5 ml microfuge tubes by using the expressed mPGES-1. The reaction mixture contained: 0.2 M Na2HPO4/NaH2PO4, pH 7.2, 10 μL; 0.1 M GSH, 2.5 μL; diluted microsomal enzyme (80 μg/mL), 1 μL; PGH2 (0.31 mM in DMF), 5 μL; 1 μL inhibitor; and H2O in a final reaction volume of 100 μL. PGH2 was stored in dry ice and used to initiate the reaction.
(§4) Compounds were incubated with the enzyme for 15 min at room temperature before the addition of cold PGH2 (1 μM final) to initiate the enzyme reaction. After 30 s, 10 μL of SnCl2 (40 mg/mL) in ethanol was added to stop the reaction. The nonenzymatic conversion of PGH2 to PGE2 was performed in the same buffer devoid of enzyme. The reaction mixture was placed on ice until PGE2 production was determined by the PGE2 enzyme immunoassay as described earlier. IC50 values of the inhibitors were calculated by using the GraphPad Prism 4.0 program. The results are set forth in the tables provided in Examples 7-10.

[2] = biological target: T2, mPGES-1 (Homo sapiens, UniProt O14684); test: mPGES-1 enzyme activity assay (PGE2 enzyme immunoassay), human enzyme; assay type: biochemical; parameters: made in house; host or cells: FreeStyle 293-F cells, crude microsomal preparation; conditions: recombinant microsomal enzyme, means ± SD, triplicate
T2 sequence (O14684 1-152): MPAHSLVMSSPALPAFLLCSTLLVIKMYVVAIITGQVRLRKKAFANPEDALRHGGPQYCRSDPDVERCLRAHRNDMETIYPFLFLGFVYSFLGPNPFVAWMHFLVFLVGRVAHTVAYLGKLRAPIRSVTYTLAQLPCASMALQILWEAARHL
Protocol: as §1, §2, §3, §4

[3] = IC50 against mPGES-1, Mouse enzyme
[4] = read-out: IC50 against mPGES-1, Human enzyme
[5] = IC50 against mPGES-1, Human enzyme
[6] = read-out: IC50 against mPGES-1, Mouse enzyme

CCCCCCCCOc1ccc(-c2nn(-c3ccc(Cl)cc3)cc2C=C2C(=O)NC(=S)NC2=O)cc1 [VI-15]
IC50 [1, 3]: 316 ± 30 nM | IC50 [2, 4]: 92 ± 19 nM

CCCCCCCCCCOc1ccc(-c2nn(-c3ccc(Cl)cc3)cc2C=C2C(=O)NC(=S)NC2=O)cc1 [VI-17]
inhibition at 10 µM [1]: 56% | IC50 [2, 4]: 93 ± 14 nM

CN1C(=O)C(=Cc2ccc(OCCCCC3CCCCC3)c([N+](=O)[O-])c2)C(=O)N(C)C1=O [Compound I-20]
inhibition at 10 µM [1]: 15% | IC50 [2, 5]: 561 ± 55 nM

O=C1NC(=S)NC(=O)C1=Cc1cn(-c2ccccc2)nc1-c1ccc(OCc2ccccc2)cc1 [VI-18]
inhibition at 10 µM [1]: 25% | IC50 [2, 5]: 797 ± 160 nM

O=C1NC(=O)C(Cc2ccc(OCCCCC3CCCCC3)c(Br)c2)C(=O)N1 [Compound I-43]
IC50 [1, 3]: 1090 ± 211 nM | IC50 [2, 5]: 97 ± 13 nM

O=C1S/C(=C\c2ccc(Oc3cc([N+](=O)[O-])c([N+](=O)[O-])cc3F)c([N+](=O)[O-])c2)C(=O)N1CCCCC1CCCCC1 [IV-01]
inhibition at 10 µM [1]: 91% | IC50 [2, 4]: 296 ± 48 nM

CCCCCCOc1ccc(C=C(C#N)C#N)cc1[N+](=O)[O-] [Compound V-04]
IC50 [1, 6]: 754 ± 73 nM | IC50 [2, 4]: 285 ± 40 nM

O=C1NC(=S)S/C1=C1\C(=O)N(CCCC2CCCCC2)c2ccccc21 [II-29]
inhibition at 10 µM [1]: 29% | IC50 [2, 4]: 1260 ± 335 nM

O=C(O)CN1C(=O)S/C(=C2\C(=O)N(CCCC3CCCCC3)c3ccccc32)C1=O [II-08]
IC50 [1, 6]: 1520 ± 317 nM | IC50 [2, 4]: 253 ± 30 nM

CCCCCCCCN1C(=O)/C(=C2\SC(=O)N(CC(=O)O)C2=O)c2ccccc21 [II-15]
IC50 [1, 6]: 2680 ± 302 nM | IC50 [2, 4]: 314 ± 44 nM

O=C(O)CN1C(=O)S/C(=C2\C(=O)N(Cc3ccccc3)c3ccccc32)C1=O [II-01]
inhibition at 10 µM [1]: 10% | IC50 [2, 4]: 817 ± 79 nM

CCCCOc1ccc(-c2nn(-c3ccc(Cl)cc3)cc2C=C2C(=O)NC(=O)NC2=O)cc1 [VI-03]
IC50 [1, 3]: 357 ± 75 nM | IC50 [2, 4]: 169 ± 41 nM

CCCCCOc1ccc(C=C2C(=O)NC(=O)NC2=O)cc1[N+](=O)[O-] [Compound I-39]
IC50 [1, 3]: 6310 ± 1140 nM | IC50 [2, 5]: 460 ± 64 nM

O=C(O)CN1C(=O)S/C(=C2\C(=O)N(CC3CCCCC3)c3ccc(-c4ccc(C#CC5CCCCC5)cc4)cc32)C1=O [II-22]
IC50 [1, 6]: 685 ± 406 nM | IC50 [2, 4]: 25 ± 5 nM

CCCCCCCCCCOc1ccc(-c2nn(-c3ccccc3)cc2C=C2C(=O)NC(=S)NC2=O)cc1 [VI-16]
inhibition at 10 µM [1]: 50% | IC50 [2, 5]: 188 ± 31 nM

O=C1NC(=O)C(=Cc2ccc(OCCCCC3CCCCC3)c(Cl)c2)C(=O)N1 [Compound I-02]
IC50 [1, 6]: 157 ± 31 nM | IC50 [2, 4]: 33 ± 3 nM

CN1C(=O)C(=Cc2ccc(OCCCCC3CCCCC3)c(Cl)c2)C(=O)N(C)C1=O [Compound I-18]
inhibition at 10 µM [1]: 8% | IC50 [2, 5]: 272 ± 30 nM

CCOc1ccc(-c2nn(-c3ccc(Cl)cc3)cc2/C=C(/C#N)C(=O)O)cc1 [VII-12]
inhibition at 10 µM [1]: 12% | IC50 [2, 4]: 282 ± 83 nM

O=C1NC(=O)C(=Cc2ccc(OCCC3CCCCC3)c([N+](=O)[O-])c2)C(=O)N1 [Compound I-37]
IC50 [1, 3]: 2390 ± 425 nM | IC50 [2, 5]: 517 ± 68 nM

O=C(CCCCCN1C(=O)C=CC1=O)Nc1ccc2c(c1)Cc1ccccc1-2 [III-02]
IC50 [1, 6]: 2880 ± 496 nM | IC50 [2, 4]: 613 ± 103 nM

CCCCCCCOc1c(Br)cc(C=C(C#N)C#N)cc1OC [Compound V-15]
IC50 [1, 6]: 357 ± 52 nM | IC50 [2, 4]: 83 ± 14 nM

CCOc1ccc(-c2nn(-c3ccc(Cl)cc3)cc2/C=C2\SC(=O)N(CC(=O)O)C2=O)cc1 [VII-10]
inhibition at 10 µM [1]: 35% | IC50 [2, 4]: 41 ± 5 nM

CCCCCCCN1C(=O)/C(=C2\SC(=O)N(CC(=O)O)C2=O)c2ccccc21 [II-14]
inhibition at 10 µM [1]: 67% | IC50 [2, 4]: 324 ± 44 nM

O=C(O)CN1C(=O)S/C(=C2\C(=O)N(Cc3ccc(Cl)cc3)c3ccc(-c4ccccc4)cc32)C1=O [II-27]
IC50 [1, 6]: 13200 ± 5080 nM | IC50 [2, 4]: 54 ± 14 nM

O=C(O)CN1C(=O)S/C(=C2\C(=O)N(CCC3CCCCC3)c3ccc(-c4ccccc4)cc32)C1=O [II-24]
IC50 [1, 6]: 777 ± 364 nM | IC50 [2, 4]: 32 ± 6 nM
